These results are taken from patent US20190150438A1, “CONFIGURATIONAL STEREOISOMER OF DIFETHIALONE, COMPOSITION AND RODENTICIDE BAIT COMPRISING SAME, AND METHOD FOR CONTROLLING TARGET RODENT PESTS” (priority 2015, published 2019).

A short description of the data set: Hepatic content in dead rats by high-pressure liquid chromatography on a chiral column. In kind it is in vivo, rat. How it is done:
About 0.525 g (±0.025 g) of rat liver is weighed out accurately and placed in a 50 mL polypropylene tube. 10 mL of acetone are added and the suspension is homogenized using an Ultra-Turrax® homogenizer/disperser for a time of about 30 seconds. The homogenizer/disperser shaft is rinsed with hot water and then twice with 20 mL of acetone in a polypropylene tube. The homogenate is centrifuged for 5 minutes at a centrifugation speed of 3000 rpm (revolutions per minute). The supernatant is collected and transferred into a test tube. The sample is subjected to evaporation under a stream of nitrogen (N2) at a temperature of 40° C. so as to form a dry extract.
1 mL of acetonitrile is added to the tube containing the dry extract so as to dissolve it. […]
The solution containing difethialone is analysed by high-pressure liquid chromatography on a LUX® Cellulose-3 chiral column (Phenomenex, Le Pecq, France) (150×2 mm, particle size of 3 μm) as described in point A2) above.
The measured values, expressed as micrograms of dextrorotatory enantiomer of said hetero-stereoisomer (“DFN-Hetero-dextro”) per gram of liver, are given in table 2 below.
The hepatic content of the dextrorotatory enantiomer of said hetero-stereoisomer of difethialone in each of the rats which die between D5 and D8 is measured by high-pressure liquid chromatography analysis on a chiral column. […]

Each structure is given as a SMILES string.

For the compound `O=c1sc2ccccc2c(O)c1C1CC(c2ccc(-c3ccc(Br)cc3)cc2)Cc2ccccc21` (centres unmarked) [Total difethialone, 3-(4′-bromobiphenyl-4-yl)-1-(4-hydroxythiocoumarin-3-yl)-1,2,3,4-tetrahydronaphthalene], the “Hepatic content, mean” value reads like this: (liver of rats which die between D5 and D8 after 10.6 ppm bait) 15.113 µg/g; (liver of rats which die between D9 and D13 after 3.7 ppm bait) 5.372 µg/g.
